SMILES strings stand for the structures. In brackets after ≈: the same amount, converted by molar mass.

Assay [1] relates to Mycobacterium tuberculosis H37Rv. Put plainly: Inhibition of Multidrug resistance efflux pump in Mycobacterium tuberculosis H37Rv assessed as reduction in rifampicin MIC at 1.56 ug/ml measured by ethidium bromide accumulation assay. The note with it: dose 1.56 µg/ml.
For assay [2], the system named is Mycobacterium tuberculosis. Description: Inhibition of Multidrug resistance efflux pump in Mycobacterium tuberculosis FURG-2 assessed as relative final fluorescence at 3.12 ug/ml measured by ethidium bromide accumulation assay. To be noted: dose 3.12 µg/ml.
In assay [3] the test system is Mycobacterium tuberculosis. Put plainly: Antimycobacterial activity against multidrug-resistant Mycobacterium tuberculosis FURG-2 assessed as inhibition of bacterial growth measured by Resazurin microtitre assay. It counts as functional. (In general: The colour change of resazurin is a common sign of viable cells or microbes.)
Assay [4] concerns Mycobacterium tuberculosis H37Rv. Description: Inhibition of Multidrug resistance efflux pump in Mycobacterium tuberculosis H37Rv assessed as relative final fluorescence at 6.26 ug/ml measured by ethidium bromide accumulation assay. The note with it: dose 6.26 µg/ml.

`O=C(C1=CN(CCc2ccccc2)C(NCCc2ccccc2)CC1)C(F)(F)F` (centres undefined): the MIC was 16 µg/mL in assay [1] and 12.5 µg/mL (≈ 31.1 µM) in assay [3]. Besides, the values for the RFU in assay [2] and in assay [4] were 1.07 and -0.2, respectively.

The values are drawn from ChEMBL document CHEMBL4834440, “2,2,2-trifluoro-1-(1,4,5,6-tetrahydropyridin-3-yl)ethanone derivative as efflux pump inhibitor in Mycobacterium tuberculosis” (Bioorg Med Chem Lett, 2021).
